Assay results: ChEMBL document CHEMBL1201862, “PubChem BioAssay data set” (2004)
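Interpolation was linear, between the two tested concentrations surrounding the appropriate level; five concentrations were tested over 48 hours in 96-well plates. GI50 marks 50% less growth.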 Active and inactive are the calls of the source. Rule as the data show it: active = GI50 up to about 1.1 µM and inactive = higher.

Columns and labels:
Assay in all cases: DTP human tumour cell line panel, 48 h
[1] = tested on: 786-0
[2] = tested on: A498
[3] = tested on: A549
[4] = tested on: ACHN
[5] = tested on: BT-549
[6] = tested on: CAKI-1
[7] = tested on: CCRF-CEM
[8] = tested on: COLO 205
[9] = tested on: DU-145
[10] = tested on: EKVX
[11] = tested on: HCC 2998
[12] = tested on: HCT-116
[13] = tested on: HCT-15
[14] = tested on: HOP-62
[15] = tested on: HT-29
[16] = tested on: Hs-578T
[17] = tested on: K562
[18] = tested on: KM12
[19] = tested on: LOX IMVI
[20] = tested on: M14
[21] = tested on: MCF7
[22] = tested on: MDA-MB-231
[23] = tested on: MDA-MB-435
[24] = tested on: MDA-N
[25] = tested on: MOLT-4
[26] = tested on: Malme-3M
[27] = tested on: NCI-H226
[28] = tested on: NCI-H23
[29] = tested on: NCI-H460
[30] = tested on: NCI/ADR-RES
[31] = tested on: OVCAR-3
[32] = tested on: OVCAR-4
[33] = tested on: OVCAR-5
[34] = tested on: OVCAR-8
[35] = tested on: PC-3
[36] = tested on: RPMI-8226
[37] = tested on: SF-268
[38] = tested on: SF-295
[39] = tested on: SF-539
[40] = tested on: SK-MEL-28
[41] = tested on: SK-MEL-2
[42] = tested on: SK-OV-3
[43] = tested on: SN12C
[44] = tested on: SNB-19
[45] = tested on: SNB-75
[46] = tested on: SW-620
[47] = tested on: T47D
[48] = tested on: U-251
[49] = tested on: UACC-257
[50] = tested on: UACC-62
[51] = tested on: UO-31
[52] = tested on: HL-60
[53] = tested on: HOP-92
[54] = tested on: IGROV-1
[55] = tested on: NCI-H522
[56] = tested on: RXF 393
[57] = tested on: SK-MEL-5
[58] = tested on: TK-10
[59] = tested on: SR

Structure (SMILES): O=[N+]([O-])/C(C(Cl)=C(Cl)Cl)=C(\NCc1ccccc1)Sc1ccccc1
- GI50 [1]: 35.1 µM (inactive)
- GI50 [2]: 25.9 µM (inactive)
- GI50 [3]: 30.2 µM (inactive)
- GI50 [4]: 35.7 µM (inactive)
- GI50 [5]: 17.3 µM (inactive)
- GI50 [6]: 37.3 µM (inactive)
- GI50 [7]: 32 µM (inactive)
- GI50 [8]: 18.7 µM (inactive)
- GI50 [9]: 36.6 µM (inactive)
- GI50 [10]: 38.4 µM (inactive)
- GI50 [11]: 34.9 µM (inactive)
- GI50 [12]: 32.4 µM (inactive)
- GI50 [13]: 17.3 µM
- GI50 [14]: 24 µM (inactive)
- GI50 [15]: 38.9 µM (inactive)
- GI50 [16]: 15.1 µM (inactive)
- GI50 [17]: 63 µM (inactive)
- GI50 [18]: 16.5 µM (inactive)
- GI50 [19]: 13.7 µM (inactive)
- GI50 [20]: 32.8 µM (inactive)
- GI50 [21]: 32.4 µM (inactive)
- GI50 [22]: 40.7 µM (inactive)
- GI50 [23]: 19.4 µM (inactive)
- GI50 [24]: 31.7 µM (inactive)
- GI50 [25]: > 100 µM (inactive)
- GI50 [26]: 16.8 µM (inactive)
- GI50 [27]: 27.8 µM (inactive)
- GI50 [28]: 20.5 µM (inactive)
- GI50 [29]: 37 µM (inactive)
- GI50 [30]: 24.5 µM (inactive)
- GI50 [31]: 17.6 µM (inactive)
- GI50 [32]: 28.6 µM (inactive)
- GI50 [33]: 47 µM (inactive)
- GI50 [34]: 16.9 µM (inactive)
- GI50 [35]: 27.5 µM (inactive)
- GI50 [36]: 34.7 µM (inactive)
- GI50 [37]: 24.3 µM (inactive)
- GI50 [38]: 20.6 µM (inactive)
- GI50 [39]: 19.9 µM (inactive)
- GI50 [40]: 17.3 µM (inactive)
- GI50 [41]: 25.1 µM (inactive)
- GI50 [42]: 34 µM (inactive)
- GI50 [43]: 35.2 µM (inactive)
- GI50 [44]: 41.2 µM (inactive)
- GI50 [45]: 28.2 µM (inactive)
- GI50 [46]: 18.4 µM (inactive)
- GI50 [47]: 30.8 µM (inactive)
- GI50 [48]: 32.3 µM (inactive)
- GI50 [49]: 33.9 µM (inactive)
- GI50 [50]: 30.4 µM (inactive)
- GI50 [51]: 17.2 µM (inactive)

Structure (SMILES): COC(=O)Nc1nc2cc(S(=O)(=O)NC(CC(C)C)C(=O)OC)ccc2[nH]1 (stereo not given)
- GI50 [1]: 3.14 µM (inactive)
- GI50 [2]: 3.13 µM (inactive)
- GI50 [3]: 7.29 µM (inactive)
- GI50 [4]: 11.1 µM (inactive)
- GI50 [5]: 35.7 µM (inactive)
- GI50 [6]: 3.66 µM (inactive)
- GI50 [7]: 3.52 µM (inactive)
- GI50 [8]: 3.22 µM (inactive)
- GI50 [9]: 2.43 µM (inactive)
- GI50 [10]: 3.93 µM (inactive)
- GI50 [12]: 2.32 µM (inactive)
- GI50 [13]: 2.81 µM
- GI50 [52]: 2.69 µM (inactive)
- GI50 [14]: 3.48 µM (inactive)
- GI50 [53]: 2.83 µM (inactive)
- GI50 [15]: 2.81 µM (inactive)
- GI50 [16]: 0.818 µM (active)
- GI50 [54]: 2.25 µM (inactive)
- GI50 [17]: 3.06 µM (inactive)
- GI50 [18]: 2.19 µM (inactive)
- GI50 [19]: 3.63 µM (inactive)
- GI50 [20]: 1.8 µM (inactive)
- GI50 [21]: 1.65 µM (inactive)
- GI50 [22]: 6.32 µM (inactive)
- GI50 [23]: 0.396 µM (active)
- GI50 [24]: 0.414 µM (active)
- GI50 [25]: 3.67 µM (inactive)
- GI50 [26]: 3.08 µM (inactive)
- GI50 [27]: 10.8 µM (inactive)
- GI50 [28]: 3.25 µM (inactive)
- GI50 [29]: 4.17 µM (inactive)
- GI50 [55]: 0.197 µM (active)
- GI50 [30]: 6.08 µM (inactive)
- GI50 [31]: 0.721 µM (active)
- GI50 [32]: 4.83 µM (inactive)
- GI50 [33]: 3.87 µM (inactive)
- GI50 [34]: 3.96 µM (inactive)
- GI50 [35]: 2.37 µM (inactive)
- GI50 [36]: 3.28 µM (inactive)
- GI50 [56]: 3.21 µM (inactive)
- GI50 [37]: 10.8 µM (inactive)
- GI50 [38]: 1.83 µM (inactive)
- GI50 [39]: 4.48 µM (inactive)
- GI50 [40]: 4.35 µM (inactive)
- GI50 [41]: 8.83 µM (inactive)
- GI50 [57]: 0.7 µM (active)
- GI50 [42]: 4.53 µM (inactive)
- GI50 [43]: 7.89 µM (inactive)
- GI50 [44]: 2.45 µM (inactive)
- GI50 [45]: 2.44 µM (inactive)
- GI50 [46]: 3.25 µM (inactive)
- GI50 [47]: 4.19 µM (inactive)
- GI50 [58]: 6.47 µM (inactive)
- GI50 [48]: 4.12 µM (inactive)
- GI50 [50]: 4.01 µM (inactive)
- GI50 [51]: 5.96 µM (inactive)

Structure (SMILES): COC(=O)C1C(O)C(C)C(O)C(C)/C=C\C=C(C)C(=O)Nc2c(C)c(OC(C)=O)c3c(c2O)C(=O)C(C)=C2OCOC(=C23)C(C)=CC(C)(O)C(O)C(C)C1O (stereo not given)
- GI50 [1]: > 100 µM (inactive)
- GI50 [3]: > 100 µM (inactive)
- GI50 [4]: > 100 µM (inactive)
- GI50 [5]: > 100 µM (inactive)
- GI50 [8]: 20.4 µM (inactive)
- GI50 [9]: > 100 µM (inactive)
- GI50 [12]: 30.3 µM (inactive)
- GI50 [52]: 29.4 µM (inactive)
- GI50 [53]: 60.4 µM (inactive)
- GI50 [15]: 42.5 µM (inactive)
- GI50 [16]: > 100 µM (inactive)
- GI50 [54]: 87.1 µM (inactive)
- GI50 [20]: 38.9 µM (inactive)
- GI50 [21]: 35.6 µM (inactive)
- GI50 [22]: 24.9 µM (inactive)
- GI50 [23]: 68.4 µM (inactive)
- GI50 [24]: 59.8 µM (inactive)
- GI50 [26]: 36.5 µM (inactive)
- GI50 [27]: > 100 µM (inactive)
- GI50 [31]: 24.3 µM (inactive)
- GI50 [34]: 34 µM (inactive)
- GI50 [35]: > 100 µM (inactive)
- GI50 [37]: 68.4 µM (inactive)
- GI50 [39]: > 100 µM (inactive)
- GI50 [40]: 47 µM (inactive)
- GI50 [41]: 32.3 µM (inactive)
- GI50 [57]: 41.2 µM (inactive)
- GI50 [59]: 96.4 µM (inactive)
- GI50 [46]: 35.5 µM (inactive)
- GI50 [47]: 52.2 µM (inactive)
- GI50 [58]: > 100 µM (inactive)
- GI50 [49]: 23 µM (inactive)
- GI50 [51]: 82.4 µM (inactive)
